# Assays:
# Format in all cases: in vivo, humans
# [1] = Serum teicoplanin concentration by HPLC; conditions: Uncured group n = 7, serum collected on the 4th day prior to drug administration, intraperitoneal 0.2 g daily, HPLC-UV 215 nm, mean ± SD
# Method: (§1) All patients received peritoneal dialysate and serum samples. […] Serum samples were collected on the 4th day prior to drug administration. Blood samples were centrifuged at 3,000 rpm for 10 minutes. The upper serum layer was then transferred into labeled EP tubes and stored at −80°C. Peritoneal fluid samples were collected daily after the PD procedure. The peritoneal fluid bag was disinfected with iodine, and peritoneal effluent was withdrawn using a sterile syringe and stored at −80°C.
# (§2) An Agilent Zorbax SB-C18 column (4.6 × 250 mm, 5 μm) was used. Methyl p-hydroxybenzoate served as the internal standard. The column temperature was kept at 35°C. The mobile phase comprised acetonitrile - 0.01 mol/L potassium dihydrogen phosphate (26:74, v/v, pH = 2.8 adjusted by phosphoric acid). A flow rate of 1 mL/min was set, with an injection volume of 40 μL. UV detection was conducted at 215 nm, while the column temperature remained at 40°C. The pretreatment and chromatographic methods for detecting teicoplanin in serum and PD effluent are the same (Supplement Material).
# [2] = Teicoplanin concentration in peritoneal dialysis effluent (PDE) by HPLC
# Method: (§3) According to the patient’s PD plan, teicoplanin for injection was evenly distributed into each bag of PD fluid before the patient’s PD procedure to ensure that each bag of dialysis fluid entering the peritoneal cavity contained teicoplanin. […] The number of dialysis times per day is determined by the peritoneal function of each peritoneal dialysis patient.
# as §1, §2
# Using multiple 1.5 mL centrifuge tubes, 360 μL of bovine serum is added to each tube. Subsequently, 40 μL of the respective standard curve series working solution, 30 μL of the internal standard solution, and 600 μL of acetonitrile are added. The contents are thoroughly mixed by vortexing, centrifuged at 14,000 rpm for 8 minutes, and 100 μL of the supernatant is transferred to sample vials for HPLC analysis.
# Perform linear regression fitting using the weighted (1/X^2) least squares method, resulting in the standard curve regression equation y = 0.0262x-0.0124 (R^2 = 0.9994).
# PDAP patients = assay: Renal function, blood lipid and electrolyte indicators before and after teicoplanin treatment; conditions: post-treatment group n = 36
# Excerpt: (§4) The secondary efficacy endpoints of this study mainly involve infectious markers: C-reactive protein (CRP) and procalcitonin (PCT); Hematological parameters: white blood cell count (b-WBC), blood neutrophilic granulocyte percentage (b-NE%), and hemoglobin (Hb); Renal function markers: serum creatinine (Scr), urea, uric acid (UA), and albumin (ALB).
# There were no significant changes in indicators such as Scr after medication compared to before treatment, and there was no significant difference in the patients' renal function (Table S3).
# [3] = tested on: PDAP patients with gram-positive bacteria cultured from PD effluent; assay: Efficacy of intraperitoneal teicoplanin in PDAP patients (PD effluent analysis, clinical symptoms, infection markers)
# Excerpt: According to the ISPD guidelines recommendation ([Li et al., 2022]), doctors can establish a diagnosis of PDAP. […] Participants should not have taken part in other clinical trials in the past 3 months, understand the trial’s purpose, willingly participate, and sign informed consent forms.
# as §3
# […] This assessment considered primary efficacy endpoints, secondary efficacy endpoints, and primary safety endpoints. The primary efficacy endpoints in this study are: 1) White blood cell count in PD effluent (p-WBC) < 100 × 10^6/L; 2) Percentage of neutrophilic granulocytes in PD effluent (p-NE%) < 50%; 3) Resolution of abdominal pain, absence of fever, and clarity of PD effluent in clinical signs of patients. According to ISPD guidelines, meeting all three criteria or two of the three constitutes a cure, while meeting one is classified as partial relief. The efficacy calculation involves determining the proportion of cured and partially relieved patients among the total.
# as §4
# However, most patients show significant improvement in clinical symptoms within 1 week.
# [4] = Cured group n = 29, intraperitoneal 0.2 g daily, HPLC-UV, mean (Q25, Q75)
# [5] = Cured group n = 29, intraperitoneal 0.2 g daily, HPLC-UV, mean ± SD, SD
# [6] = Uncured group n = 7, intraperitoneal 0.2 g daily, HPLC-UV, mean ± SD, SD
# [7] = Uncured group n = 7, mean (Q25, Q75)
# [8] = Uncured group n = 7, mean ± SD, SD
# [9] = number of 36 PDAP patients, intraperitoneal 0.2 g daily, after 7 days
substance,measurement,setting,value
teicoplanin,Serum teicoplanin concentration,[1],10.85 ± 4.92
same,PDE teicoplanin concentration on Day 5,"[2]; 24-h urine volume 0–200 mL, n = 17, M50 (M25, M75)","12.85 (8.12, 21.23) mg/L"
same,PDE teicoplanin concentration on Day 5,"[2]; 24-h urine volume 201–537 mL, n = 10, M50 (M25, M75)","10.17 (7.38, 24.59) mg/L"
same,PDE teicoplanin concentration on Day 5,"[2]; 24-h urine volume >537 mL, n = 9, M50 (M25, M75)","23.16 (18.89, 39.45) mg/L"
same,Day 3 PDE teicoplanin concentration,[2]; [4],"14.17 (6.80, 22.93) mg/L"
same,Day 7 PDE teicoplanin concentration,[2]; [4],"20.89 (9.45, 30.23) mg/L"
same,Day 1 PDE teicoplanin concentration,[2]; [5],13.65 ± 3.26 mg/L
same,Day 5 PDE teicoplanin concentration,[2]; [5],18.98 ± 2.43 mg/L
same,Day 7 PDE teicoplanin concentration,"[2]; Uncured group n = 7, intraperitoneal 0.2 g daily, HPLC-UV, mean (Q25, Q75)","11.43 (8.42, 13.21) mg/L"
same,Day 1 PDE teicoplanin concentration,[2]; [6],11.48 ± 3.39 mg/L
same,Day 5 PDE teicoplanin concentration,[2]; [6],12.07 ± 2.68 mg/L
same,day-5 PDE teicoplanin concentration,"[2]; age 49 ~ 61 years old, n = 9, mean ± SD, SD",10.18 ± 1.68 mg/L
same,day-5 PDE teicoplanin concentration,"[2]; age 62 ~ 71 years old, n = 9, mean ± SD, SD",20.19 ± 8.62 mg/L
same,day-5 PDE teicoplanin concentration,"[2]; age > 71 years old, n = 9, mean ± SD, SD",29.46 ± 12.29 mg/L
same,day-5 PDE teicoplanin concentration,"[2]; age ≤ 48 years old, n = 9, mean ± SD, SD",19.46 ± 10.28 mg/L
same,day-5 PDE teicoplanin concentration,"[2]; body weight 54-60 kg, n = 9, mean ± SD, SD",20.19 ± 6.74 mg/L
same,day-5 PDE teicoplanin concentration,"[2]; body weight 61-76.5 kg, n = 8, mean ± SD, SD",15.37 ± 6.39 mg/L
same,day-5 PDE teicoplanin concentration,"[2]; body weight ≤ 53 kg, n = 10, mean ± SD, SD",24.23 ± 7.34 mg/L
same,day-5 PDE teicoplanin concentration,"[2]; body weight ≥ 76.5kg, n = 9, mean ± SD, SD",19.27 ± 7.38 mg/L
same,day-5 PDE teicoplanin concentration,"[2]; both G1.5% and G2.5% low calcium peritoneal dialysate, n = 8, mean ± SD, SD",19.47 ± 9.45 mg/L
same,PDE teicoplanin concentration on Day 5,"[2]; daily PD frequency 1–3 times, n = 5, mean ± SD, SD",38.71 ± 16.36 mg/L
same,PDE teicoplanin concentration on Day 5,"[2]; daily PD frequency 4 times, n = 18, mean ± SD, SD",12.89 ± 7.28 mg/L
same,PDE teicoplanin concentration on Day 5,"[2]; daily PD frequency 5–6 times, n = 13, mean ± SD, SD",17.67 ± 10.23 mg/L
same,day-5 PDE teicoplanin concentration,"[2]; eGFR 4.726 ~ 6.35 mL/min, n = 9, mean ± SD, SD",28.39 ± 11.47 mg/L
same,day-5 PDE teicoplanin concentration,"[2]; eGFR 6.36 ~ 8.524 mL/min, n = 9, mean ± SD, SD",18.26 ± 7.45 mg/L
same,day-5 PDE teicoplanin concentration,"[2]; eGFR ≤ 4.725 mL/min, n = 9, mean ± SD, SD",16.05 ± 5.28 mg/L
same,day-5 PDE teicoplanin concentration,"[2]; eGFR ≥ 8.525 mL/min, n = 9, mean ± SD, SD",21.21 ± 9.21 mg/L
same,day-5 PDE teicoplanin concentration,"[2]; females, n = 14, mean ± SD, SD",18.22 ± 6.29 mg/L
same,day-5 PDE teicoplanin concentration,"[2]; fibrinogen 4.2 to 5.2 g/L, n = 9, mean ± SD, SD",20.72 ± 8.16 mg/L
same,day-5 PDE teicoplanin concentration,"[2]; fibrinogen 5.3 to 6.54 g/L, n = 7, mean ± SD, SD",17.35 ± 6.45 mg/L
same,day-5 PDE teicoplanin concentration,"[2]; fibrinogen ≤ 4.1 g/L, n = 9, mean ± SD, SD",30.56 ± 12.32 mg/L
same,day-5 PDE teicoplanin concentration,"[2]; fibrinogen ≥ 6.55 g/L, n = 11, mean ± SD, SD",14.87 ± 7.07 mg/L
same,day-5 PDE teicoplanin concentration,"[2]; males, n = 22, mean ± SD, SD",19.25 ± 7.89 mg/L
same,day-5 PDE teicoplanin concentration,"[2]; only G1.5% low calcium peritoneal dialysate, n = 10, mean ± SD, SD",19.24 ± 10.23 mg/L
same,day-5 PDE teicoplanin concentration,"[2]; only G2.5% low calcium peritoneal dialysate, n = 18, mean ± SD, SD",24.48 ± 9.23 mg/L
same,ALB,"PDAP patients; mean ± SD, pre-treatment 28.66 ± 4.99, SD",28.55 ± 5.97 g/L
same,Scr,"PDAP patients; mean ± SD, pre-treatment 772.45 ± 320.15, SD",739.46 ± 312.14 µmol/L
same,HDL,PDAP patients; pre-treatment 0.88 ± 0.38,0.76 ± 0.55 mmol/L
same,TG,"PDAP patients; pre-treatment 1.25 (1.02, 1.74)","1.21 (1.01, 2.27) mmol/L"
same,LDL,PDAP patients; pre-treatment 1.91 ± 0.81,1.49 ± 0.69 mmol/L
same,Ca,"PDAP patients; pre-treatment 2.02 (1.86, 2.18)","2.08 (1.81, 2.26) mmol/L"
same,TC,PDAP patients; pre-treatment 3.49 ± 1.02,2.97 ± 0.85 mmol/L
same,eGFR,"PDAP patients; pre-treatment 6.35 (4.72, 8.52)","7.30 (4.90, 8.50) mL/min/1.73m^2"
same,Urea,"PDAP patients; pre-treatment 16.20 (12.55, 21.46)","16.00 (10.20, 21.30) mmol/L"
same,Na,PDAP patients; pre-treatment 134.75 ± 5.25,136.40 ± 5.49 mmol/L
same,CRP after treatment,[3]; [7],"34.00 (5.20, 69.38) mg/L"
same,PCT after treatment,[3]; [7],"0.66 (0.29, 2.87) ng/mL"
same,p-WBC after treatment,[3]; [7],"159.00 (112.5, 1023.5) *10^6/L"
same,b-NE% after treatment,[3]; [8],71.08 ± 25.08%
same,b-WBC after treatment,[3]; [8],6.40 ± 2.28 *10^9/L
same,p-NE% after treatment,[3]; [8],58.86 ± 33.91%
same,Fever,"[3]; cases (%) in post-treatment group n = 36, pre-treatment 8 (22.3%)",1 (2.7%)
same,Diarrhea,"[3]; cases (%) in post-treatment group n = 36, pre-treatment 9 (25%)",1 (2.7%)
same,Peritoneal dialysate turbidity,"[3]; cases (%) in post-treatment group n = 36, pre-treatment 26 (72.2%)",2 (5.6%)
same,Abdominal pain,"[3]; cases (%) in post-treatment group n = 36, pre-treatment 31 (86.1%)",3 (8.3%)
same,overall treatment success rate,"[3]; cured plus partial remission among 36 PDAP patients, intraperitoneal 0.2 g daily, assessed after 7 days",88.9%
same,patients with treatment failure,"[3]; number of 36 PDAP patients (1 died, 3 permanently transitioned to hemodialysis)",4
same,patients cured,[3]; [9],29
same,patients in partial remission,[3]; [9],3
same,p-Lym%,"[3]; post-treatment group n = 36, after 7 days, mean (Q25, Q75), pre-treatment 14.55 (9.85, 29.1)","72.85 (45.95, 86.45) %"
same,p-Lym (lymphocyte count in PD effluent),"[3]; post-treatment group n = 36, after 7 days, mean (Q25, Q75), pre-treatment 196.00 (91.15, 444.62)","14.00 (6.25, 49.75) *10^6/L"
same,p-NE,"[3]; post-treatment group n = 36, after 7 days, mean (Q25, Q75), pre-treatment 1099.60 (418.57, 3333.62)","4.00 (1.00, 18.00) *10^6/L"
same,p-WBC (white blood cell count in PD effluent),"[3]; post-treatment group n = 36, after 7 days, mean (Q25, Q75), pre-treatment 1333.5 (573.50, 4475.00)","28.00 (10.25, 75.00) *10^6/L"
same,PCT,"[3]; secondary indicator, post-treatment group n = 36, after 14 days, mean (Q25, Q75), pre-treatment 0.66 (0.30, 2.99)","0.61 (0.29, 1.15) ng/mL"
same,b-WBC,"[3]; secondary indicator, post-treatment group n = 36, after 14 days, mean (Q25, Q75), pre-treatment 6.40 (5.32, 8.00)","6.20 (5.32, 8.85) *10^9/L"
same,CRP,"[3]; secondary indicator, post-treatment group n = 36, after 14 days, mean (Q25, Q75), pre-treatment 37.50 (10.00, 101.27)","8.30 (3.55, 19.33) mg/L"
same,b-NE%,"[3]; secondary indicator, post-treatment group n = 36, after 14 days, mean (Q25, Q75), pre-treatment 77.60 (67.42, 84.95)","69.10 (59.32, 72.60) %"
